Test results published in patent publication US12325697B2 (Nimbus Clio, Inc., priority 2021, dated 2025).
Values belong to the molecule of their own block, whether it stands above or below them.

How the values were obtained:
[1] = target: Recombinant human Cbl-b (aa 36-427) (Homo sapiens (Human), UniProt Q13191); assay: Cbl-b Biochemical Assay (TR-FRET); conditions: read-out: TR-FRET hCbl-b IC50
How it was run: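 IC50 from 4-parameter fit of % inhibition (DMSO max, reference-inhibitor min), duplicate ten-point series. Compound preincubated with 6 nM Cbl-b, then Src-Zap70 (1-2.5 nM)/0.5 mM ATP reaction 60 min RT; EDTA quench with labelled UBE2D2-Ub and streptavidin-terbium, 60 min, HTRF at 520 nm.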

[2] = target: Recombinant human c-Cbl (aa 47-435) (Homo sapiens (Human), UniProt P22681); assay: c-Cbl Biochemical Assay (TR-FRET)
Recombinant human c-Cbl (aa 47-435), sequence (P22681 47-435): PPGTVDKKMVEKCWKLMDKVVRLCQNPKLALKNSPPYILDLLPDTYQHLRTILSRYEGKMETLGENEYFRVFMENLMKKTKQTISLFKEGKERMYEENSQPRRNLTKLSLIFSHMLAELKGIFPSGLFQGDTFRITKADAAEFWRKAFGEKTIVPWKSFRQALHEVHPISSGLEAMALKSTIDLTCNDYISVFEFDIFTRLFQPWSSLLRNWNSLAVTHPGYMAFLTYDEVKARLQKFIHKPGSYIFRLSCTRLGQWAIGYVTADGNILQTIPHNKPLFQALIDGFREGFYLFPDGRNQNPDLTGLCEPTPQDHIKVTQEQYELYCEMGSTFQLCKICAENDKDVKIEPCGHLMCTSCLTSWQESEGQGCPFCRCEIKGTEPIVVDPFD
How it was run: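 TR-FRET binding of UBE2D2-Ub-Bodipy (100 nM) to biotinylated c-Cbl (aa 47-435, 6 nM) via Streptavidin-Tb, measured after c-Cbl activation by Src-Zap70 with 0.5 mM ATP (60-90 min RT, 30 min compound preincubation). Ten-point half-log dilutions, 1% DMSO; IC50 by 4-parameter fit of normalized inhibition.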

Recombinant human Cbl-b (aa 36-427), sequence (Q13191 36-427): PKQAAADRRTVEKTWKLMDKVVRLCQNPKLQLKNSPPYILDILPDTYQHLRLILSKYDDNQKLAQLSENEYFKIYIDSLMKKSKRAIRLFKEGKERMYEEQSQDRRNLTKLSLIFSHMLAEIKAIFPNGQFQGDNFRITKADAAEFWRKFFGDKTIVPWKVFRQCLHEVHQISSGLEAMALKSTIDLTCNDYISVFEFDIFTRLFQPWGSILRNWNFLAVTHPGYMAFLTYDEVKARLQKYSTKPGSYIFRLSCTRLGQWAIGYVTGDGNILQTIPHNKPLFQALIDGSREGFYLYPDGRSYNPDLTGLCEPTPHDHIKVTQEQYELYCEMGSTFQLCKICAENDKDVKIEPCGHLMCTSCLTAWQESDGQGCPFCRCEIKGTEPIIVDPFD

SMILES: Cn1cnnc1-c1cc(C#N)ccc1-c1cc(C2CC2)nc(N2Cc3ccc(OC[C@@H](O)CO)cc3C2=O)c1 [AJM-3, (S)-4-(2-Cyclopropyl-6-(6-(2,3-dihydroxypropoxy)-1-oxoisoindolin-2-yl)pyridin-4-yl)-3-(4-methyl-4H-1,2,4-triazol-3-yl)benzonitrile]
- IC50 [1]: ≤ 0.2 µM
- IC50 [2]: ≤ 0.2 µM

SMILES: Cn1cnnc1-c1cc(C#N)ccc1-c1cc(C2CC2)nc(N2Cc3ccc(OC[C@H](O)CO)cc3C2=O)c1 [AJN-3, (R)-4-(2-Cyclopropyl-6-(6-(2,3-dihydroxypropoxy)-1-oxoisoindolin-2-yl)pyridin-4-yl)-3-(4-methyl-4H-1,2,4-triazol-3-yl)benzonitrile]
- IC50 [1]: ≤ 0.2 µM
- IC50 [2]: ≤ 0.2 µM

SMILES: CCOc1cc(-c2ccc(F)cc2-c2nncn2C)cc(N2Cc3c(OC)cc(CN(C)CC4(O)CCC4)cc3C2=O)n1 [AJO-2, 2-(6-Ethoxy-4-(4-fluoro-2-(4-methyl-4H-1,2,4-triazol-3-yl)phenyl)pyridin-2-yl)-6-((((1-hydroxycyclobutyl)methyl)(methyl)amino)methyl)-4-methoxyisoindolin-1-one]
- IC50 [1]: ≤ 0.2 µM
- IC50 [2]: ≤ 0.2 µM

SMILES: Cn1cnnc1-c1cc(C#N)ccc1-c1cc(C2CC2)cc(N2Cc3ccc(CO)cc3C2=O)c1 [AJP-7, 3′-Cyclopropyl-5′-(6-(hydroxymethyl)-1-oxoisoindolin-2-yl)-2-(4-methyl-4H-1,2,4-triazol-3-yl)-[1,1′-biphenyl]-4-carbonitrile]
- IC50 [1]: 0.2 to 1 µM
- IC50 [2]: 1 to 10 µM

SMILES: COCCNCc1ccc2c(c1)C(=O)N(c1cc(-c3ccc(C#N)cc3-c3nncn3C)cc(C3CC3)c1)C2 [AJQ-2, 3′-Cyclopropyl-5′-(6-(((2-methoxyethyl)amino)methyl)-1-oxoisoindolin-2-yl)-2-(4-methyl-4H-1,2,4-triazol-3-yl)-[1,1′-biphenyl]-4-carbonitrile]
- IC50 [1]: ≤ 0.2 µM
- IC50 [2]: ≤ 0.2 µM

SMILES: Cn1cnnc1-c1cc(C#N)ccc1-c1cc(C2CC2)cc(N2Cc3ccc(CNCC4CC4)cc3C2=O)c1 [AJR-1, 3′-Cyclopropyl-5′-(6-{[(cyclopropylmethyl)amino]methyl}-1-oxo-3H-isoindol-2-yl)-2-(4-methyl-1,2,4-triazol-3-yl)-[1,1′-biphenyl]-4-carbonitrile]
- IC50 [1]: ≤ 0.2 µM
- IC50 [2]: ≤ 0.2 µM

SMILES: CN(Cc1ccc2c(c1)C(=O)N(c1cc(-c3ccc(F)cc3-c3nncn3C)cc(C3CC3)n1)C2)CC1(O)CCC1 [AJS-1, 2-(6-Cyclopropyl-4-(4-fluoro-2-(4-methyl-4H-1,2,4-triazol-3-yl)phenyl)pyridin-2-yl)-6-((((1-hydroxycyclobutyl)methyl) (methyl)amino)methyl)isoindolin-1-one]
- IC50 [1]: ≤ 0.2 µM
- IC50 [2]: ≤ 0.2 µM

SMILES: CCOc1cc(-c2ccc(F)cc2-c2nncn2C)cc(N2Cc3ccc(CN(C)CC4(O)CCC4)cc3C2=O)n1 [AJT-1, 2-{6-Ethoxy-4-[4-fluoro-2-(4-methyl-1,2,4-triazol-3-yl)phenyl]pyridin-2-yl}-6-({[(1-hydroxycyclobutyl)methyl] (methyl)amino}methyl)-3H-isoindol-1-one]
- IC50 [1]: ≤ 0.2 µM
- IC50 [2]: ≤ 0.2 µM

SMILES: CNC[C@H](O)COc1ccc2c(c1)C(=O)N(c1cc(-c3ccc(C#N)cc3-c3nncn3C)cc(C3CC3)n1)C2 [AJU-3, 4-(2-Cyclopropyl-6-{6-[(2S)-2-hydroxy-3-(methylamino)propoxy]-1-oxo-3H-isoindol-2-yl}pyridin-4-yl)-3-(4-methyl-1,2,4-triazol-3-yl) benzonitrile]
- IC50 [1]: ≤ 0.2 µM
- IC50 [2]: ≤ 0.2 µM

SMILES: CNC[C@@H](O)COc1ccc2c(c1)C(=O)N(c1cc(-c3ccc(C#N)cc3-c3nncn3C)cc(C3CC3)n1)C2 [AJV-3, 4-(2-Cyclopropyl-6-{6-[(2R)-2-hydroxy-3-(methylamino)propoxy]-1-oxo-3H-isoindol-2-yl}pyridin-4-yl)-3-(4-methyl-1,2,4-triazol-3-yl)benzonitrile]
- IC50 [1]: ≤ 0.2 µM
- IC50 [2]: ≤ 0.2 µM

SMILES: CN(Cc1cc2c(c(C(F)(F)F)c1)CN(c1cc(-c3c(-c4nncn4C)cnn3C)cc(C3CC3)n1)C2=O)CC1(O)CCC1 [AJW-1, 2-{6-Cyclopropyl-4-[2-methyl-4-(4-methyl-1,2,4-triazol-3-yl)pyrazol-3-yl]pyridin-2-yl}-6-({[(1-hydroxycyclobutyl)methyl](methyl)amino}methyl)-4-(trifluoromethyl)-3H-isoindol-1-one]
- IC50 [1]: ≤ 0.2 µM
- IC50 [2]: ≤ 0.2 µM

SMILES: Cn1cnnc1-c1cc(C#N)ccc1-c1cc(C2CC2)nc(N2Cc3ccc(CNCC4(F)CCC4)cc3C2=O)c1 [AJX-1, 4-{2-Cyclopropyl-6-[6-({[(1-fluorocyclobutyl)methyl]amino}methyl)-1-oxo-3H-isoindol-2-yl]pyridin-4-yl}-3-(4-methyl-1,2,4-triazol-3-yl)benzonitrile]
- IC50 [1]: ≤ 0.2 µM
- IC50 [2]: ≤ 0.2 µM

SMILES: CN(Cc1ccc2c(c1)C(=O)N(c1cc(-c3ccc(C#N)cc3-c3nncn3C)cc(C3CC3)n1)C2)CC1CCCC1 [AJY-1, 4-[2-(6-{1[(Cyclopentylmethyl)(methyl)amino]methyl}-1-oxo-3H-isoindol-2-yl)-6-cyclopropylpyridin-4-yl]-3-(4-methyl-1,2,4-triazol-3-yl)benzonitrile]
- IC50 [1]: ≤ 0.2 µM
- IC50 [2]: ≤ 0.2 µM

- IC50 [1]: ≤ 0.2 µM
- IC50 [2]: ≤ 0.2 µM
SMILES: CC(NCC1CCC1)c1ccc2c(c1)C(=O)N(c1cc(-c3ccc(C#N)cc3-c3nncn3C)cc(C3CC3)n1)C2 (stereo not drawn) [AJZ-1, 4-(2-(6-(1-((Cyclobutylmethyl)amino)ethyl)-1-oxoisoindolin-2-yl)-6-cyclopropylpyridin-4-yl)-3-(4-methyl-4H-1,2,4-triazol-3-yl)benzonitrile]

SMILES: C[C@@H](NCC1CCC1)c1ccc2c(c1)C(=O)N(c1cc(-c3ccc(C#N)cc3-c3nncn3C)cc(C3CC3)n1)C2 [AKA-1, (R)-4-(2-(6-(1-((Cyclobutylmethyl)amino)ethyl)-1-oxoisoindolin-2-yl)-6-cyclopropylpyridin-4-yl)-3-(4-methyl-4H-1,2,4-triazol-3-yl)benzonitrile]
- IC50 [1]: ≤ 0.2 µM
- IC50 [2]: ≤ 0.2 µM

SMILES: C[C@H](NCC1CCC1)c1ccc2c(c1)C(=O)N(c1cc(-c3ccc(C#N)cc3-c3nncn3C)cc(C3CC3)n1)C2 [AKB-1, (S)-4-(2-(6-(1-((Cyclobutylmethyl)amino)ethyl)-1-oxoisoindolin-2-yl)-6-cyclopropylpyridin-4-yl)-3-(4-methyl-4H-1,2,4-triazol-3-yl)benzonitrile]
- IC50 [1]: ≤ 0.2 µM
- IC50 [2]: ≤ 0.2 µM

SMILES: Cn1cnnc1-c1cc(C#N)ccc1-c1cc(C2CC2)nc(N2Cc3ccc(CNCC4CC(F)(F)C4)cc3C2=O)c1 [AKC-2, 4-{2-Cyclopropyl-6-[6-({[(3,3-difluorocyclobutyl)methyl]amino}methyl)-1-oxo-3H-isoindol-2-yl]pyridin-4-yl}-3-(4-methyl-1,2,4-triazol-3-yl)benzonitrile]
- IC50 [1]: ≤ 0.2 µM
- IC50 [2]: ≤ 0.2 µM

SMILES: Cn1cnnc1-c1cc(C#N)ccc1-c1cc(C2CC2)nc(N2Cc3ccc(CNCC45CC(C4)C5)cc3C2=O)c1 [AKD-2, 4-(2-{6-[({Bicyclo[1.1.1]pentan-1-ylmethyl}amino)methyl]-1-oxo-3H-isoindol-2-yl}-6-cyclopropylpyridin-4-yl)-3-(4-methyl-1,2,4-triazol-3-yl)benzonitrile]
- IC50 [1]: ≤ 0.2 µM
- IC50 [2]: ≤ 0.2 µM

SMILES: COC1(CNCc2ccc3c(c2)C(=O)N(c2cc(-c4ccc(C#N)cc4-c4nncn4C)cc(C4CC4)n2)C3)CCCC1 [AKE-2, 4-{2-Cyclopropyl-6-[6-({[(1-methoxycyclopentyl)methyl]amino}methyl)-1-oxo-3H-isoindol-2-yl]pyridin-4-yl}-3-(4-methyl-1,2,4-triazol-3-yl)benzonitrile]
- IC50 [1]: ≤ 0.2 µM
- IC50 [2]: ≤ 0.2 µM

SMILES: Cn1cnnc1-c1cc(C#N)ccc1-c1cc(C2CC2)nc(N2Cc3ccc(CNCC4(C#N)CCC4)cc3C2=O)c1 [AKF-2, 4-{2-[6-({[(1-Cyanocyclobutyl)methyl]amino}methyl)-1-oxo-3H-isoindol-2-yl]-6-cyclopropylpyridin-4-yl}-3-(4-methyl-1,2,4-triazol-3-yl)benzonitrile]
- IC50 [1]: ≤ 0.2 µM
- IC50 [2]: ≤ 0.2 µM

SMILES: COC[C@H](C)NCc1cc(F)c2c(c1)C(=O)N(c1cc(-c3ccc(C#N)cc3-c3nncn3C)cc(C3CC3)n1)C2 [AKG-1, 4-{2-Cyclopropyl-6-[4-fluoro-6-({[(2S)-1-methoxypropan-2-yl]amino}methyl)-1-oxo-3H-isoindol-2-yl]pyridin-4-yl}-3-(4-methyl-1,2,4-triazol-3-yl)benzonitrile]
- IC50 [1]: ≤ 0.2 µM
- IC50 [2]: ≤ 0.2 µM

SMILES: COC[C@@H](C)NCc1cc(F)c2c(c1)C(=O)N(c1cc(-c3ccc(C#N)cc3-c3nncn3C)cc(C3CC3)n1)C2 [AKH-1, 4-{2-Cyclopropyl-6-[4-fluoro-6-({[(2R)-1-methoxypropan-2-yl]amino}methyl)-1-oxo-3H-isoindol-2-yl]pyridin-4-yl}-3-(4-methyl-1,2,4-triazol-3-yl)benzonitrile]
- IC50 [1]: ≤ 0.2 µM
- IC50 [2]: ≤ 0.2 µM

SMILES: Cn1cnnc1-c1cnn(C)c1-c1cc(C2CC2)nc(N2Cc3c(cc(CO)cc3C(F)(F)F)C2=O)c1 [AKI-1, 2-{6-Cyclopropyl-4-[2-methyl-4-(4-methyl-1,2,4-triazol-3-yl)pyrazol-3-yl]pyridin-2-yl}-6-(hydroxymethyl)-4-(trifluoromethyl)-3H-isoindol-1-one]
- IC50 [1]: ≤ 0.2 µM
- IC50 [2]: ≤ 0.2 µM

SMILES: CCOc1cc(-c2ccc(C#N)cc2-c2nncn2C)cc(N2Cc3ccc(CNCC4(F)CCC4)cc3C2=O)n1 [AKJ-1, 4-{2-Ethoxy-6-[6-({[(1-fluorocyclobutyl)methyl]amino}methyl)-1-oxo-3H-isoindol-2-yl]pyridin-4-yl}-3-(4-methyl-1,2,4-triazol-3-yl)benzonitrile]
- IC50 [1]: ≤ 0.2 µM
- IC50 [2]: ≤ 0.2 µM
